# How the values were obtained:
# [1] = system: iNOS mRNA; assay: iNOS mRNA expression level; format: cell-based; settings: FIG. 5A
# Method: Western blotting was conducted to identify the mechanism of the NO and PGE2 production inhibiting activity of the compound of the present invention. The inhibition of iNOS and COX-2 protein production and mRNA upregulation was tested.
# [2] = system: TNF-α; assay: Cytokine production inhibiting activity, TNF-α; format: cell-based; settings: at a concentration of 12 μM, FIG. 6
# Method: (§1) The inhibitory activity for the proinflammatory cytokines TNF-α, IL-1β and IL-6 was tested for the compound of the present invention.
# [3] = system: RAW 264.7 macrophages
# Method: RAW 264.7 macrophages were seeded onto a 24-well plate, cultured with a sample or an adequate positive control under various concentration conditions and then LPS (lipopolysaccharides) were activated for 24 hours. After adding a 20 μL MTT (5 mg/mL) solution to each well, the cells were cultured further for 4 hours. After removing the supernatant, 1 mL of formazan dissolved in dimethyl sulfoxide (DMSO) was added to each well. Then, absorbance was measured by ELISA at a wavelength of 540 nm.
# [4] = system: LPS-induced NO production in RAW 264.7 macrophages; assay: Measurement of nitrite (Griess test) as a measure of NO production; format: cell-based, murine; settings: FIG. 2
# Method: The concentration of nitrite accumulated in the culture medium was measured by the Griess test as a measure of nitric oxide (NO) production. L-NIL was used as the positive control.
# [5] = system: LPS-induced PEG2 production; assay: Measurement of PEG2 production; format: cell-based; settings: FIG. 3
# [6] = system: IL-6; assay: Cytokine production inhibiting activity, IL-6; format: cell-based; settings: at a concentration of 12 μM, FIG. 6
# Method: as §1
structure (smiles),measurement,setting,value
"COc1ccc(Oc2nc(Nc3ccc(N4CCOCC4)cc3)ncc2/N=C/c2cc(OC)cc(OC)c2)cc1 [Example 21, (E)-5-((3,5-dimethoxybenzylidene)amino)-4-(4-methoxyphenoxy)-N-(4-morpholinophenyl)pyrimidin-2-amine]",inhibition of LPS-induced upregulation of iNOS mRNA,[1],inhibit LPS-induced upregulation of iNOS mRNA
same,inhibition of TNF-α production,[2],inhibit the production of TNF-α
same,cell viability (toxicity),[3],little toxicity
same,inhibition of LPS-induced NO production,"[4]; RAW 264.7 macrophages, LPS 24 hours, Griess test",inhibit LPS-induced NO production in a dose-dependent manner
same,NO inhibitory activity as compared to the positive control L-NIL,[4]; relative to L-NIL,2 times
same,inhibition of LPS-induced PEG2 production,[5],inhibit LPS-induced PEG2 production in a dose-dependent manner
same,inhibition of IL-6 production,[6],inhibit the production of TNF-α and IL-6
